Data published in patent US12642271B2, “Active compound combinations comprising a (thio)carboxamide derivative and a fungicidal compound” (Bayer CropScience Aktiengesellschaft, priority 2011, dated 2026).
Where “and” joins values, the source holds several entries; their conditions need not be identical. Equal values may be shown once. Read-outs that look alike come from different tables or passages of the source.

Tests used:
[1] = system: Phytophthora infestans; assay: whole plant or invertebrate; assay type: in vivo; details: Phytophthora infestans, 72 h, read-out: Efficacy in % found
[2] = system: Alternaria solani; assay: Alternaria test (tomatoes)/preventive; assay type: in vivo; details: Alternaria solani, 72 h, read-out: Efficacy in % found
[3] = system: Sphaerotheca fuliginea; assay: Sphaerotheca test (cucumbers)/preventive; assay type: in vivo; details: Podosphaera fuliginea, 168 h, read-out: Efficacy in % found; for pest or weed control at 0.5 ppm: 0.5 ppm a.i.; for pest or weed control at 0.25 ppm: 0.25 ppm a.i.
[4] = system: Blumeria graminis f.sp. hordei; assay: Blumeria test (barley)/preventive; assay type: in vivo; details: Blumeria graminis, 168 h, read-out: Efficacy in % found; for pest or weed control at 10 ppm: 10 ppm a.i.
[5] = system: Leptosphaeria nodorum; assay: Leptosphaeria nodorum test (wheat)/preventive; assay type: in vivo; details: for pest or weed control at 10 ppm / pest or weed control at 40 ppm: Parastagonospora nodorum, 192 h, read-out: Efficacy in % found; for pest or weed control at 40 ppm: application rate 40 ppm
[6] = system: Puccinia triticina; assay: Puccinia triticina-test (wheat)/preventive; assay type: in vivo; details: preventive, evaluated 8 days after inoculation; for pest or weed control at 10 ppm / pest or weed control at 40 ppm: Puccinia triticina, 192 h, read-out: Efficacy in % found; for pest or weed control at 40 ppm: application rate 40 ppm a.i.
[7] = system: Septoria tritici; assay: Septoria tritici-test (wheat)/preventive; assay type: in vivo; details: Zymoseptoria tritici, 504 h, preventive, evaluated 21 days after inoculation, read-out: Efficacy in % found; for pest or weed control at 10 ppm: application rate 10 ppm a.i.
[8] = system: Botrytis cinerea; assay: Botrytis test (beans)/preventive
Procedure: After the spray coating has dried on, 2 small pieces of agar covered with growth of Botrytis cinerea are placed on each leaf. The inoculated plants are placed in a darkened chamber at 20° C. and a relative atmospheric humidity of 100%. 2 days after the inoculation, the size of the lesions on the leaves is evaluated.

[9] = system: Venturia inaequalis; assay: Venturia test (apples)/preventive; details: for pest or weed control at 0.5 ppm: 0.5 ppm a.i.
Procedure: After the spray coating has dried on, the plants are inoculated with an aqueous conidia suspension of the causal agent of apple scab (Venturia inaequalis) and then remain for 1 day in an incubation cabinet at approximately 20° C. and a relative atmospheric humidity of 100%.
The plants are then placed in a greenhouse at approximately 21° C. and a relative atmospheric humidity of approximately 90%.
The test is evaluated 10 days after the inoculation.

[10] = system: Fusarium nivale (var. majus); assay: Fusarium nivale (var. majus)-test (wheat)/preventive; details: Microdochium nivale, in Triticum aestivum, 120 h; for pest or weed control at 10 ppm: 10 ppm a.i.; for pest or weed control at 40 ppm: 40 ppm a.i.
Procedure: After the spray coating has been dried, the plants are slightly injured by using a sandblast and afterwards they are sprayed with a conidia suspension of Fusarium nivale (var. majus).
The plants are placed in the greenhouse under a translucent incubation cabinet at a temperature of approximately 10° C. and a relative atmospheric humidity of approximately 100%.
The test is evaluated 5 days after the inoculation.

[11] = system: Fusarium graminearum; assay type: in vivo
[12] = system: Pyrenophora teres; assay: Pyrenophora teres-test (barley)/preventive; assay type: in vivo; details: application rate 10 ppm a.i., preventive, evaluated 8 days after inoculation
[13] = application rate 10 ppm, wheat, preventive, evaluated 8 days after inoculation
[14] = wheat, preventive, evaluated 8 days after inoculation
[15] = read-out: Efficacy in % found, Table 8e
[16] = Venturia inaequalis, 240 h, read-out: Efficacy in % found, Table 2b, 0.25 ppm a.i.

## CC(C)c1ccc(Cl)cc1CN(C(=O)c1c(C(F)F)nn(C)c1F)C1CC1 [A5, N-(5-chloro-2-isopropylbenzyl)-N-cyclopropyl-3-(difluoromethyl)-5-fluoro-1-methyl-1H-pyrazole-4-carboxamide]
[1]
  pest or weed control at 0.5 ppm: 0%
[2]; Table 3e
  pest or weed control at 0.5 ppm: 6%
[2]; Table 3d
  pest or weed control at 0.5 ppm: 0%
[3]; Table 4d
  pest or weed control at 0.5 ppm: 0%
[4]; Table 6f, 40 ppm a.i.
  pest or weed control at 40 ppm: 25%
[5]; [13]
  pest or weed control at 10 ppm: 20%
[5]; [14]
  pest or weed control at 40 ppm: 60%
[6]; application rate 10 ppm a.i.
  pest or weed control at 10 ppm: 44%
[6]
  pest or weed control at 40 ppm: 94%
[7]; application rate 40 ppm a.i.
  pest or weed control at 40 ppm: 93%
[8]; Table 5b, 0.5 ppm a.i.
  Efficacy in % found: 16%
[8]; Table 5b, 2 ppm a.i.
  Efficacy in % found: 72%
[9]; Venturia inaequalis, 240 h, read-out: Efficacy in % found, Table 2e
  pest or weed control at 0.5 ppm: 15%
[9]; Venturia inaequalis, 240 h, read-out: Efficacy in % found, Table 2e, 2 ppm a.i.
  pest or weed control at 2 ppm: 57%
[9]; Venturia inaequalis, 240 h, read-out: Efficacy in % found, Table 2d, 0.25 ppm a.i.
  pest or weed control at 0.25 ppm: 0%
[9]; Venturia inaequalis, 240 h, read-out: Efficacy in % found, Table 2d
  pest or weed control at 0.5 ppm: 0%
[10]; [15]
  pest or weed control at 10 ppm: 0%
  pest or weed control at 40 ppm: 0%
[10]; read-out: Efficacy in % found, Table 8f
  pest or weed control at 40 ppm: 38%

## Cn1nc(C(F)F)c(C(=O)N(Cc2cc(Cl)ccc2C(F)(F)F)C2CC2)c1F [A15, N-[5-chloro-2-(trifluoromethyl)benzyl]-N-cyclopropyl-3-(difluoromethyl)-5-fluoro-1-methyl-1H-pyrazole-4-carboxamide]
[1]
  pest or weed control at 0.25 ppm: 0%
  pest or weed control at 0.5 ppm: 0%
  pest or weed control at 100 ppm: 25%
[2]; Table 3b, 0.25 ppm
  pest or weed control at 0.25 ppm: 59%
[2]; Table 3b
  pest or weed control at 0.5 ppm: 63%
[3]; Table 4c
  pest or weed control at 0.25 ppm: 29%
[4]; Table 6b
  pest or weed control at 10 ppm: 13%
[4]; Table 6b, 40 ppm a.i.
  pest or weed control at 40 ppm: 70%
[4]; Table 6c, 40 ppm
  pest or weed control at 40 ppm: 75%
[11]; Table 7b, 10 ppm a.i.
  Efficacy in % found: 0%
[11]; Table 7b, 40 ppm a.i.
  Efficacy in % found: 0%
[6]; application rate 10 ppm a.i.
  pest or weed control at 10 ppm: 44%
[6]
  pest or weed control at 40 ppm: 89%
[12]
  Efficacy in % found: 67%
[7]
  pest or weed control at 10 ppm: 57%
[8]; Table 5a, 2.5 ppm a.i.
  Efficacy in % found: 8%
[9]; Venturia inaequalis, 240 h, read-out: Efficacy in % found, Table 2a
  pest or weed control at 0.5 ppm: 0%
[9]; [16]
  pest or weed control at 0.25 ppm: 0%
[10]; read-out: Efficacy in % found, Table 8c
  pest or weed control at 10 ppm: 63%

## Cn1nc(C(F)F)c(C(=O)N(Cc2c(Cl)cccc2C(F)(F)F)C2CC2)c1F [A17, N-[2-chloro-6-(trifluoromethyl)benzyl]-N-cyclopropyl-3-(difluoromethyl)-5-fluoro-1-methyl-1H-pyrazole-4-carboxamide]
[1]
  pest or weed control at 0.25 ppm: 0%
  pest or weed control at 0.5 ppm: 0%
  pest or weed control at 100 ppm: 30%
[2]; Table 3b
  pest or weed control at 0.5 ppm: 71%
[2]; Table 3c
  pest or weed control at 0.5 ppm: 32%
[3]; Table 4a
  pest or weed control at 0.5 ppm: 74%
[3]; Table 4b
  pest or weed control at 0.25 ppm: 71%
[4]; Table 6a
  pest or weed control at 10 ppm: 95%
[11]; Table 7a, 10 ppm a.i.
  Efficacy in % found: 50%
[5]; Table 9e, 10 ppm a.i.
  pest or weed control at 10 ppm: 29%
[5]; [13]
  pest or weed control at 10 ppm: 33%
[5]; [14]
  pest or weed control at 40 ppm: 67%
[6]
  pest or weed control at 40 ppm: 67%
[12]
  Efficacy in % found: 86% and 89%
[9]; [16]
  pest or weed control at 0.25 ppm: 8%
[10]; read-out: Efficacy in % found, Table 8d
  pest or weed control at 10 ppm: 43%

## CC(C)C1C2CCC1c1c(NC(=O)c3cn(C)nc3C(F)F)cccc12 (stereo not drawn) [B2.11, isopyrazam (syn + anti)]
[11]; Table 7b, 40 ppm a.i.
  Efficacy in % found: 0%
[5]; Table 9b, 10 ppm a.i.
  Efficacy in % found: 0%
[6]; application rate 10 ppm a.i.
  Efficacy in % found: 33%
[12]
  Efficacy in % found: 0%
[9]; Table 2d, 0.25 ppm a.i.
  Efficacy in % found: 88%

## CON=C(C(=O)OC)c1ccccc1CON=C(C)c1cccc(C(F)(F)F)c1 [B3.22, trifloxystrobin]
[3]; Table 4c, 1 ppm a.i.
  pest or weed control at 1 ppm: 21%
[11]; Table 7a, 10 ppm a.i.
  Efficacy in % found: 0%
[11]; Table 7b, 10 ppm a.i.
  Efficacy in % found: 25%
[5]; [13]
  pest or weed control at 10 ppm: 40%
[5]; [14]
  pest or weed control at 40 ppm: 57%
[7]
  pest or weed control at 10 ppm: 13%
